Measured values as given in ChEMBL document CHEMBL5376007, “Discovery of Novel PD-L1 Inhibitors That Induce the Dimerization, Internalization, and Degradation of PD-L1 Based on the Fragment Coupling Strategy” (J Med Chem, 2023).
pIC50: −log10 of the molar value. Activity calls are given as the source filed them. No cut-off for these calls is given here.

What was measured:
[1] = biological target: Programmed cell death protein 1/Programmed cell death 1 ligand 1 (Homo sapiens, UniProt Q9NZQ7); test: Inhibition of interaction of Fc(IgG1)-Avi)-(Biotin)-fused human PDL1 (19 to 239 residues)/Eu-labeled human PD-1 (25 to 167 residues) expressed in HEK293 cells pretreated with PDL1 for 15 mins followed by PD-1 addition and measured after 90 mins by TR-FRET assay; assay type: cell-based
[2] = biological target: Programmed cell death 1 ligand 1 (Homo sapiens, UniProt Q9NZQ7); test: Inhibition of human recombinant PDL1 expressed in HEK293 cells assessed as restoration of Jurkat T cell activity by measuring increase in IFNgamma secretion at 1 uM incubated for 24 hrs by ELISA; assay type: cell-based
Sequence of Programmed cell death 1 ligand 1 (Q9NZQ7 whole entry): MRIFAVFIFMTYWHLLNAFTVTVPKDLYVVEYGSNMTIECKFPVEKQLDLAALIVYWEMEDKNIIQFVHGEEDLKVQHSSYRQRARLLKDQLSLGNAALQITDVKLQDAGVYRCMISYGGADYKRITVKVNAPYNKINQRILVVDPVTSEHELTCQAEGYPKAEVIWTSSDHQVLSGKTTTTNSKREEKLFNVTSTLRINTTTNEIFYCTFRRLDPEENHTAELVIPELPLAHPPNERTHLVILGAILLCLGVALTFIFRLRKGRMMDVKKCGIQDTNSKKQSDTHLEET

Sequence of Programmed cell death protein 1/Programmed cell death 1 ligand 1 (Q15116 whole entry, the tested form may be a part): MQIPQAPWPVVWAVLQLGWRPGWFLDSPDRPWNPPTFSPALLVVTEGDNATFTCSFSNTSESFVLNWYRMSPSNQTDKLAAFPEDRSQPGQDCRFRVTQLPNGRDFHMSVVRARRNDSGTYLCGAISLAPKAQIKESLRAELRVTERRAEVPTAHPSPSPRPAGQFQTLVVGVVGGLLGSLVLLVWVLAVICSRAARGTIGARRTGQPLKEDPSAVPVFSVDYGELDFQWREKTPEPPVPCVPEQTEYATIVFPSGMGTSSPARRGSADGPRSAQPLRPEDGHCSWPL
Sequence of Programmed cell death protein 1/Programmed cell death 1 ligand 1 (Q9NZQ7 whole entry, the tested form may be a part): as the sequence (Q9NZQ7 whole entry) above

| Compound | pIC50 [1] | inhibition [2] |
| --- | --- | --- |
| Cc1c(C(=O)Nc2ccc(CNCCO)cc2)cccc1-c1cccc(-c2nnc(Nc3cccc(CNCCO)c3)o2)c1C | 6.90 |  |
| Cc1c(-c2nnc(Nc3cccc(CNCCO)c3)o2)cccc1-c1cccc(C(=O)Nc2ccc(CNCCO)cn2)c1Cl | 8.09 |  |
| COc1nc(O[C@H]2CCc3c(-c4cccc(C(=O)Nc5ccc(CNCCO)c(C(F)(F)F)n5)c4Cl)cccc32)c(Cl)cc1CNCCO | 7.78 |  |
| Cc1c(-c2nnc(Nc3cccc(CNCC(=O)O)c3)o2)cccc1-c1cccc(-c2nnc(Nc3cccc(CNCC(=O)O)c3)o2)c1C | 7.16 |  |
| CC(=O)NCCNCc1ccc(Nc2nnc(-c3cccc(-c4cccc(-c5nnc(Nc6cccc(CNCCNC(C)=O)c6)o5)c4C)c3C)o2)cc1 | 6.05 |  |
| COc1nc(O[C@H]2CCc3c(-c4cccc(C(=O)Nc5ccc(CNCCO)c(F)n5)c4Cl)cccc32)c(Cl)cc1CNCCO | 7.79 |  |
| Cc1c(-c2cccc(-c3nnc(Nc4cccc(CNCCO)c4)o3)c2)cccc1-c1nnc(Nc2cccc(CN3CC[C@@H](O)C3)c2)o1 | 7.29 |  |
| COc1nc(NC(=O)c2cccc(-c3cccc4c3CC[C@@H]4Oc3nc(OC)c(CNCCO)cc3Cl)c2Cl)ccc1CNCCO | 7.74 |  |
| COc1nc(NC(=O)c2cccc(-c3cccc4c3CC[C@@H]4Oc3nc(OC)c(CNCCNC(C)=O)cc3Cl)c2Cl)ccc1CNCCNC(C)=O | 7.66 |  |
| Cc1c(-c2nnc(Nc3cccc(CN4CC[C@@H](O)C4)c3)o2)cccc1-c1cccc(-c2nnc(Nc3cccc(CN4CC[C@@H](O)C4)c3)o2)c1C | 7.51 | Active |
| COc1nc(O[C@H]2CCc3c(-c4cccc(C(=O)Nc5ccc(CNCCNC(C)=O)c(C(F)(F)F)n5)c4Cl)cccc32)c(Cl)cc1CNCCNC(C)=O | 7.73 |  |
| COc1nc(O[C@H]2CCc3c(-c4cccc(C(=O)Nc5ccc(CNCCO)cn5)c4Cl)cccc32)c(Cl)cc1CNCCO | 8.37 |  |
| Cc1c(-c2nnc(Nc3ccc(CN4CC[C@@H](O)C4)cc3)o2)cccc1-c1cccc(-c2nnc(Nc3cccc(CN4CC[C@@H](O)C4)c3)o2)c1C | 5.93 |  |
| CC(=O)NCCNCc1cccc(Nc2nnc(-c3cccc(-c4cccc(-c5nnc(Nc6cccc(CNCCO)c6)o5)c4C)c3C)o2)c1 | 7.42 |  |
| Cc1c(-c2ccccc2)cccc1-c1nnc(Nc2cccc(CNCCO)c2)o1 | 7.56 |  |
| COc1nc(O[C@H]2CCc3c(-c4cccc(C(=O)Nc5ccc(CN6CC(O)C6)cn5)c4Cl)cccc32)c(Cl)cc1CN1CC(O)C1 | 8.20 |  |
